#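 Step 1: Grow cells in 96-well plates. Step 2: Expose to compound for 48 hours at 5 concentrations. Step 3: Interpolate endpoints linearly; if unreached, use highest concentration. At the GI50, growth is halved. TGI marks complete inhibition of growth.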
# Tests used:
# Assay in all cases: NCI anticancer screen, dose series, 48 h
# CCRF-CEM leukemia = tested on: CCRF-CEM leukemia
# A498 renal = tested on: A498 renal
# ACHN renal = tested on: ACHN renal
# IGROV1 ovarian = tested on: IGROV1 ovarian
# HOP-62 NSCLC = tested on: HOP-62 NSCLC
# 786-0 renal = tested on: 786-0 renal
# SK-MEL-28 melanoma = tested on: SK-MEL-28 melanoma
# RXF 393 renal = tested on: RXF 393 renal
# OVCAR-3 ovarian = tested on: OVCAR-3 ovarian
# HCT-15 colon = tested on: HCT-15 colon
# SR leukemia = tested on: SR leukemia
# HCC-2998 colon = tested on: HCC-2998 colon
# LOX IMVI melanoma = tested on: LOX IMVI melanoma
# A549 NSCLC = tested on: A549 NSCLC
# M14 melanoma = tested on: M14 melanoma
# MOLT-4 leukemia = tested on: MOLT-4 leukemia
# MALME-3M melanoma = tested on: MALME-3M melanoma
# SW-620 colon = tested on: SW-620 colon
# SF-295 CNS = tested on: SF-295 CNS
# BT-549 breast = tested on: BT-549 breast
# NCI-H226 lung = tested on: NCI-H226 lung
# EKVX NSCLC = tested on: EKVX NSCLC
# U251 CNS = tested on: U251 CNS
# MDA-N = tested on: MDA-N
# SF-539 CNS = tested on: SF-539 CNS
# HS 578T breast = tested on: HS 578T breast
# SNB-19 CNS = tested on: SNB-19 CNS
# MCF7 breast = tested on: MCF7 breast
# K-562 leukemia = tested on: K-562 leukemia
# TK-10 renal = tested on: TK-10 renal
# NCI-H460 lung = tested on: NCI-H460 lung
# OVCAR-8 ovarian = tested on: OVCAR-8 ovarian
# SK-MEL-2 melanoma = tested on: SK-MEL-2 melanoma
# HCT-116 colon = tested on: HCT-116 colon
# PC-3 prostate = tested on: PC-3 prostate
# HOP-92 NSCLC = tested on: HOP-92 NSCLC
# SF-268 CNS = tested on: SF-268 CNS
# OVCAR-4 ovarian = tested on: OVCAR-4 ovarian
# OVCAR-5 ovarian = tested on: OVCAR-5 ovarian
# HT29 colon = tested on: HT29 colon
# SNB-75 CNS = tested on: SNB-75 CNS
# UACC-257 melanoma = tested on: UACC-257 melanoma
# SN12C renal = tested on: SN12C renal
# SK-OV-3 ovarian = tested on: SK-OV-3 ovarian
# CAKI-1 renal = tested on: CAKI-1 renal
# DU-145 prostate = tested on: DU-145 prostate
# SK-MEL-5 melanoma = tested on: SK-MEL-5 melanoma
# NCI-H522 lung = tested on: NCI-H522 lung
# COLO 205 colon = tested on: COLO 205 colon
# NCI/ADR-RES ovarian = tested on: NCI/ADR-RES ovarian
# MDA-MB-435 = tested on: MDA-MB-435
# UACC-62 melanoma = tested on: UACC-62 melanoma
# T-47D breast = tested on: T-47D breast
# RPMI-8226 leukemia = tested on: RPMI-8226 leukemia
# MDA-MB-231 breast = tested on: MDA-MB-231 breast
# NCI-H23 lung = tested on: NCI-H23 lung
# UO-31 renal = tested on: UO-31 renal
# KM12 colon = tested on: KM12 colon
# HL-60(TB) leukemia = tested on: HL-60(TB) leukemia
compound,measurement,setting,value
c1ccc(-c2nc3ccccc3n3c(CN4CCCCC4)nnc23)cc1,TGI,CCRF-CEM leukemia,> 100 µM
same,TGI,A498 renal,> 100 µM
same,TGI,ACHN renal,> 100 µM
same,TGI,IGROV1 ovarian,> 100 µM
same,TGI,HOP-62 NSCLC,> 100 µM
same,TGI,786-0 renal,> 100 µM
same,TGI,SK-MEL-28 melanoma,> 100 µM
same,TGI,RXF 393 renal,> 100 µM
same,TGI,OVCAR-3 ovarian,> 100 µM
same,TGI,HCT-15 colon,> 100 µM
same,TGI,SR leukemia,> 100 µM
same,TGI,HCC-2998 colon,> 100 µM
same,TGI,LOX IMVI melanoma,> 100 µM
same,TGI,A549 NSCLC,> 100 µM
same,TGI,M14 melanoma,> 100 µM
same,TGI,MOLT-4 leukemia,> 100 µM
same,TGI,MALME-3M melanoma,> 100 µM
same,TGI,SW-620 colon,> 100 µM
same,TGI,SF-295 CNS,> 100 µM
same,TGI,BT-549 breast,> 100 µM
same,TGI,NCI-H226 lung,> 100 µM
same,TGI,EKVX NSCLC,> 100 µM
same,TGI,U251 CNS,> 100 µM
same,TGI,MDA-N,> 100 µM
same,TGI,SF-539 CNS,> 100 µM
same,TGI,HS 578T breast,> 100 µM
same,TGI,SNB-19 CNS,> 100 µM
same,TGI,MCF7 breast,> 100 µM
same,TGI,K-562 leukemia,> 100 µM
same,TGI,TK-10 renal,> 100 µM
same,TGI,NCI-H460 lung,> 100 µM
same,TGI,OVCAR-8 ovarian,> 100 µM
same,TGI,SK-MEL-2 melanoma,> 100 µM
same,TGI,HCT-116 colon,> 100 µM
same,TGI,PC-3 prostate,> 100 µM
same,TGI,HOP-92 NSCLC,> 100 µM
same,TGI,SF-268 CNS,> 100 µM
same,TGI,OVCAR-4 ovarian,> 100 µM
same,TGI,OVCAR-5 ovarian,> 100 µM
same,TGI,HT29 colon,> 100 µM
same,TGI,SNB-75 CNS,40.7 µM
same,TGI,UACC-257 melanoma,> 100 µM
same,TGI,SN12C renal,> 100 µM
same,TGI,SK-OV-3 ovarian,> 100 µM
same,TGI,CAKI-1 renal,> 100 µM
same,TGI,DU-145 prostate,> 100 µM
same,TGI,SK-MEL-5 melanoma,> 100 µM
same,TGI,NCI-H522 lung,> 100 µM
same,TGI,COLO 205 colon,> 100 µM
same,TGI,NCI/ADR-RES ovarian,> 100 µM
same,TGI,MDA-MB-435,> 100 µM
same,TGI,UACC-62 melanoma,> 100 µM
same,TGI,T-47D breast,> 100 µM
same,TGI,RPMI-8226 leukemia,> 100 µM
same,TGI,MDA-MB-231 breast,> 100 µM
O=C(O)C(=Cc1ccc(-c2ccccc2)cc1)C(=O)O,TGI,CCRF-CEM leukemia,> 100 µM
same,TGI,A498 renal,40 µM
same,TGI,ACHN renal,60.1 µM
same,TGI,IGROV1 ovarian,> 100 µM
same,TGI,HOP-62 NSCLC,22.5 µM
same,TGI,786-0 renal,41.4 µM
same,TGI,SK-MEL-28 melanoma,48.3 µM
same,TGI,RXF 393 renal,14.5 µM
same,TGI,OVCAR-3 ovarian,17.5 µM
same,TGI,HCT-15 colon,> 61 µM
same,TGI,SR leukemia,14.7 µM
same,TGI,HCC-2998 colon,21.9 µM
same,TGI,LOX IMVI melanoma,25.9 µM
same,TGI,A549 NSCLC,> 58.8 µM
same,TGI,M14 melanoma,29.5 µM
same,TGI,MOLT-4 leukemia,53.6 µM
same,TGI,MALME-3M melanoma,39.7 µM
same,TGI,SW-620 colon,97.5 µM
same,TGI,SF-295 CNS,53.3 µM
same,TGI,BT-549 breast,29.4 µM
same,TGI,NCI-H226 lung,48.4 µM
same,TGI,NCI-H23 lung,32.2 µM
same,TGI,EKVX NSCLC,> 100 µM
same,TGI,U251 CNS,25.9 µM
same,TGI,MDA-N,> 100 µM
same,TGI,SF-539 CNS,19.3 µM
same,TGI,HS 578T breast,> 100 µM
same,TGI,SNB-19 CNS,37.9 µM
same,TGI,MCF7 breast,33.5 µM
same,TGI,K-562 leukemia,36.9 µM
same,TGI,TK-10 renal,30.7 µM
same,TGI,NCI-H460 lung,35.7 µM
same,TGI,OVCAR-8 ovarian,> 92 µM
same,TGI,SK-MEL-2 melanoma,16.6 µM
same,TGI,HCT-116 colon,24.7 µM
same,TGI,PC-3 prostate,27.6 µM
same,TGI,HOP-92 NSCLC,> 68.6 µM
same,TGI,SF-268 CNS,> 59.3 µM
same,TGI,OVCAR-4 ovarian,41.2 µM
same,TGI,OVCAR-5 ovarian,> 55.6 µM
same,TGI,HT29 colon,> 49.3 µM
same,TGI,SNB-75 CNS,28 µM
same,TGI,UO-31 renal,27.6 µM
same,TGI,UACC-257 melanoma,25 µM
same,TGI,SN12C renal,35.1 µM
same,TGI,SK-OV-3 ovarian,41.2 µM
same,TGI,KM12 colon,40.9 µM
same,TGI,CAKI-1 renal,30 µM
same,TGI,DU-145 prostate,> 39 µM
same,TGI,SK-MEL-5 melanoma,23.9 µM
same,TGI,NCI-H522 lung,22.8 µM
same,TGI,HL-60(TB) leukemia,26.6 µM
same,TGI,COLO 205 colon,25.1 µM
same,TGI,NCI/ADR-RES ovarian,> 94 µM
same,TGI,MDA-MB-435,> 64.8 µM
same,TGI,UACC-62 melanoma,26.1 µM
same,TGI,T-47D breast,34 µM
same,TGI,RPMI-8226 leukemia,20.6 µM
same,TGI,MDA-MB-231 breast,38.5 µM
CCC/C=C/c1cc2c(cc1O)CC[C@@H]1[C@@H]2CC[C@]2(C)[C@@H](O)CC[C@@H]12,TGI,CCRF-CEM leukemia,32.8 µM
same,TGI,A498 renal,31.8 µM
same,TGI,ACHN renal,34.2 µM
same,TGI,IGROV1 ovarian,49.4 µM
same,GI50,HOP-62 NSCLC,21.9 µM
same,TGI,HOP-62 NSCLC,42.6 µM
same,TGI,786-0 renal,30.1 µM
same,TGI,SK-MEL-28 melanoma,36.5 µM
same,TGI,RXF 393 renal,33.2 µM
same,TGI,OVCAR-3 ovarian,47 µM
same,TGI,HCT-15 colon,39.9 µM
same,TGI,SR leukemia,45.7 µM
same,TGI,HCC-2998 colon,38.8 µM
same,TGI,LOX IMVI melanoma,29.3 µM
same,TGI,A549 NSCLC,36.9 µM
same,TGI,M14 melanoma,37.3 µM
same,TGI,MOLT-4 leukemia,42.5 µM
same,TGI,MALME-3M melanoma,30.3 µM
same,TGI,SW-620 colon,37.4 µM
same,TGI,SF-295 CNS,34.9 µM
same,TGI,BT-549 breast,36.1 µM
same,TGI,NCI-H226 lung,45.8 µM
same,TGI,NCI-H23 lung,35.9 µM
same,TGI,EKVX NSCLC,41.2 µM
same,TGI,U251 CNS,30.6 µM
same,TGI,MDA-N,28.3 µM
same,GI50,SF-539 CNS,20.2 µM
same,TGI,SF-539 CNS,35.7 µM
same,TGI,HS 578T breast,57.6 µM
same,TGI,SNB-19 CNS,> 56.6 µM
same,TGI,MCF7 breast,52.6 µM
same,TGI,K-562 leukemia,45.5 µM
same,TGI,TK-10 renal,38 µM
same,TGI,NCI-H460 lung,33 µM
same,TGI,OVCAR-8 ovarian,64.2 µM
same,TGI,SK-MEL-2 melanoma,32.1 µM
same,GI50,HCT-116 colon,17.2 µM
same,TGI,HCT-116 colon,31.6 µM
same,TGI,PC-3 prostate,31 µM
same,TGI,HOP-92 NSCLC,40.8 µM
same,TGI,SF-268 CNS,42.6 µM
same,TGI,OVCAR-4 ovarian,44.9 µM
same,TGI,OVCAR-5 ovarian,35.1 µM
same,TGI,HT29 colon,32.9 µM
same,TGI,SNB-75 CNS,34.6 µM
same,TGI,UO-31 renal,31 µM
same,TGI,UACC-257 melanoma,30.8 µM
same,GI50,SN12C renal,17.1 µM
same,TGI,SN12C renal,32.4 µM
same,TGI,SK-OV-3 ovarian,63.2 µM
same,TGI,KM12 colon,32.6 µM
same,TGI,CAKI-1 renal,41.8 µM
same,GI50,DU-145 prostate,18.7 µM
same,TGI,DU-145 prostate,34.2 µM
same,TGI,SK-MEL-5 melanoma,30.2 µM
same,TGI,NCI-H522 lung,35.5 µM
same,TGI,HL-60(TB) leukemia,27.3 µM
same,TGI,COLO 205 colon,36.5 µM
same,TGI,NCI/ADR-RES ovarian,44.1 µM
same,TGI,MDA-MB-435,32.1 µM
same,TGI,UACC-62 melanoma,29 µM
same,TGI,T-47D breast,77.1 µM
same,TGI,RPMI-8226 leukemia,37.5 µM
same,TGI,MDA-MB-231 breast,33.7 µM

# Reference: PubChem BioAssay (NCI)
